Test results reported in patent publication US8222280B2, “Ether compounds with nitrogen-containing 5-member heterocycle and uses thereof” (Sinochem Corporation, priority 2008, dated 2012).

Legend:
[1] = test system: second instar larvae of diamond backmoth (Plutella xylostella); assay: Insecticidal activity against diamond backmoth, leaf disc spraying by airbrush; type: in vivo; details: mortality after 72 hrs, sprayed cabbage leaf disc
Protocol: To determine the insecticidal and acaricidal activity of selected compounds by the following procedures:
Compounds were dissolved in mixed solvent (acetone:methanol=1:1), and diluted to required concentration with water containing 0.1% of tween 80.
The second instar larvae of diamond backmoth (Plutella xylostella) were used in biological test. The method of spraying by airbrush was employed.
Determination of insecticidal activity against diamond backmoth: The cabbage leaves were made into plates of 1 cm diameter by punch. A test solution (0.5 ml) was sprayed by airbrush at the pressure of 0.7 kg/cm^2 to both sides of every plate. 10 Second instar larvae were put into the petri-dishes after the leaf disc air-dried and 3 replicates were set for each treatment. Then the insects were maintained in observation room ([…], 60-70% R.H.). Scores were conducted and mortalities were calculated after 72 hrs.

wheat powdery mildew = assay: Fungicidal activity in vivo on potted plants; details: 400 ppm; sprayed on potted plant, inoculation after 24 hours, visual assessment after about 1 week
Protocol: Determination of fungicidal activities against plant diseases of selected compounds were carried out by the following procedure:
Determination of Fungicidal Activity In Vivo:
Plants were prepared in pot. Compounds were dissolved in acetone and diluted to required concentration by water containing 0.1% (wt) Tween80. Test solution was sprayed onto potted plant. Pathogen inoculation was carried out after 24 hours, then plants were hold in growth chambers maintaining constant temperature and moisture for infection. When untreated plant was under desirable disease severity (after 1 week approximately), assessment was carried out by visual observation.

Structure (SMILES) | control of the second instar larvae of diamond backmoth ([1]; dose 100 mg/L) | further results
Cn1nc(-c2ccc(Br)cc2)cc1OCCCOc1c(Cl)cc(OCC=C(Cl)Cl)cc1Cl [Compound 16] | 100% | 
CCc1ccc(-c2c(C)c(OCCCOc3c(Cl)cc(OCC=C(Cl)Cl)cc3Cl)nn2C)cc1 [Compound 368] | 100% | 
Cc1c(OCCCCOc2c(Cl)cc(OCC=C(Cl)Cl)cc2Cl)nn(C)c1-c1ccccc1 [Compound 532] | 100% | 
Cn1nc(-c2ccc(Cl)cc2)cc1OCCCCOc1ccc(OCC=C(Cl)Cl)cc1Cl [Compound 248] | 100% | control of the second instar larvae of diamond backmoth ([1]; dose 25 mg/L): 100%
Cn1nc(-c2ccccc2)cc1OCCCOc1c(Cl)cc(OCC=C(Cl)Cl)cc1Cl [Compound 1] | 100% | 
Cc1c(-c2ccccc2)nn(C)c1OCCCOc1c(Cl)cc(OCC=C(Cl)Cl)cc1Cl [Compound 76] | 100% | 
Cn1nc(OCCCOc2c(Cl)cc(OCC=C(Cl)Cl)cc2Cl)cc1-c1ccc(C(C)(C)C)cc1 [Compound 306] | 100% | 
Cc1c(OCCCOc2c(Cl)cc(OCC=C(Cl)Cl)cc2Cl)nn(C)c1-c1ccc(C(C)C)cc1 [Compound 387] | 100% | control of the second instar larvae of diamond backmoth ([1]; dose 25 mg/L): 100%
Cn1nc(-c2ccc(Cl)cc2Cl)cc1OCCCOc1c(Cl)cc(OCC=C(Cl)Cl)cc1Cl [Compound 11] | 100% | 
Cc1c(OCCCOc2c(Cl)cc(OCC=C(Cl)Cl)cc2Cl)nn(C)c1-c1ccc(Cl)c(Cl)c1 [Compound 361] | 100% | 
CCCc1ccc(-c2cc(OCCCOc3c(Cl)cc(OCC=C(Cl)Cl)cc3Cl)n(C)n2)cc1 [Compound 38] | 100% | 
Cc1ccc(-c2cc(OCCCOc3c(Cl)cc(OCC=C(Cl)Cl)cc3Cl)nn2C)c(C)c1 [Compound 293] | 100% | 
COc1ccc(-c2cc(OCCCOc3c(Cl)cc(OCC=C(Cl)Cl)cc3Cl)n(C)n2)cc1 [Compound 13] | 100% | 
Cn1nc(OCCCOc2c(Cl)cc(OCC=C(Cl)Cl)cc2Cl)cc1-c1ccc(Cl)cc1 [Compound 269] | 100% | control of the second instar larvae of diamond backmoth ([1]; dose 25 mg/L): 100%
Cc1ccc(-c2cc(OCCCOc3c(Cl)cc(OCC=C(Cl)Cl)cc3Cl)n(C)n2)c(C)c1 [Compound 26] | 100% | 
COc1ccc(-c2c(C)c(OCCCOc3c(Cl)cc(OCC=C(Cl)Cl)cc3Cl)nn2C)cc1 [Compound 363] | 100% | 
Cn1nc(OCCCOc2c(Cl)cc(OCC=C(Cl)Cl)cc2Cl)cc1-c1ccc(Br)cc1 [Compound 283] | 100% | 
Cn1nc(OCCCOc2c(Cl)cc(OCC=C(Cl)Cl)cc2Cl)cc1-c1ccc(Cl)cc1Cl [Compound 278] | 100% | 
Cn1nc(OCCCCOc2c(Cl)cc(OCC=C(Cl)Cl)cc2Cl)cc1-c1ccc(Cl)cc1 [Compound 522] | 100% | 
FC(F)(F)c1ccc(OCCCOc2c(Cl)cc(OCC=C(Cl)Cl)cc2Cl)nc1 [pyridalyl, Pyridalyl, reference compound] | 100% | control of the second instar larvae of diamond backmoth ([1]; dose 6.25 mg/L): 65%; control of the second instar larvae of diamond backmoth ([1]; dose 25 mg/L): 100%
Cc1c(-c2ccccc2)nn(C)c1OCCCCOc1c(Cl)cc(OCC=C(Cl)Cl)cc1Cl [Compound 257] | 100% | 
CSc1ccc(-c2cc(OCCCOc3c(Cl)cc(OCC=C(Cl)Cl)cc3Cl)n(C)n2)cc1 [Compound 8] | 100% | 

Structure (SMILES) | control of the second instar larvae of diamond backmoth ([1]; dose 100 mg/L) | further results
Cn1nc(-c2ccc(Cl)cc2)cc1OCCOc1c(Cl)cc(OCC=C(Cl)Cl)cc1Cl [Compound 225] | 100% | control of the second instar larvae of diamond backmoth ([1]; dose 25 mg/L): 100%
CCOc1ccc(-c2c(C)c(OCCCOc3c(Cl)cc(OCC=C(Cl)Cl)cc3Cl)nn2C)cc1 [Compound 356] | 100% | 
Cn1nc(OCCOc2c(Cl)cc(OCC=C(Cl)Cl)cc2Cl)cc1-c1ccc(Cl)cc1 [Compound 500] | 100% | 
Cc1c(OCCCOc2c(Cl)cc(OCC=C(Cl)Cl)cc2Cl)nn(C)c1-c1ccc(Cl)cc1Cl [Compound 360] | 100% | 
Cn1nc(OCCCOc2c(Cl)cc(OCC=C(Cl)Cl)cc2Cl)cc1-c1ccccc1 [Compound 268] | 100% | control of the second instar larvae of diamond backmoth ([1]; dose 25 mg/L): 100%
Cc1c(OCCCOc2c(Cl)cc(OCC=C(Cl)Cl)cc2Cl)nn(C)c1-c1ccc(F)cc1 [Compound 352] | 100% | control of the second instar larvae of diamond backmoth ([1]; dose 25 mg/L): 100%
Cn1nc(-c2ccc(Cl)cc2)cc1OCCCCOc1c(Cl)cc(OCC=C(Cl)Cl)cc1Cl [Compound 247] | 100% | control of the second instar larvae of diamond backmoth ([1]; dose 25 mg/L): 100%
COc1ccc(-c2cc(OCCCOc3c(Cl)cc(OCC=C(Cl)Cl)cc3Cl)nn2C)cc1 [Compound 280] | 100% | 
Cc1ccc(-c2nn(C)c(OCCCOc3c(Cl)cc(OCC=C(Cl)Cl)cc3Cl)c2C)cc1 [Compound 92] | 100% | 
Cc1c(-c2ccc(Cl)cc2)nn(C)c1OCCCOc1c(Cl)cc(OCC=C(Cl)Cl)cc1Cl [Compound 77] | 100% | 
Cc1c(OCCCOc2c(Cl)cc(OCC=C(Cl)Cl)cc2Cl)nn(C)c1-c1ccc(C(C)(C)C)cc1 [Compound 389] | 100% | 
Cc1ccc(-c2c(C)c(OCCCOc3c(Cl)cc(OCC=C(Cl)Cl)cc3Cl)nn2C)cc1C [Compound 377] | 100% | control of the second instar larvae of diamond backmoth ([1]; dose 25 mg/L): 100%
CCc1ccc(-c2cc(OCCCOc3c(Cl)cc(OCC=C(Cl)Cl)cc3Cl)n(C)n2)cc1 [Compound 18] | 100% | 
Cc1ccc(-c2c(C)c(OCCCOc3c(Cl)cc(OCC=C(Cl)Cl)cc3Cl)nn2C)cc1 [Compound 367] | 100% | control of the second instar larvae of diamond backmoth ([1]; dose 25 mg/L): 100%
Cc1ccc(-c2cc(OCCCOc3c(Cl)cc(OCC=C(Cl)Cl)cc3Cl)n(C)n2)cc1 [Compound 17] | 100% | 
Cc1ccc(-c2c(C)c(OCCCCOc3c(Cl)cc(OCC=C(Cl)Cl)cc3Cl)nn2C)cc1 [Compound 538] | 100% | 
COc1ccccc1-c1cc(OCCCOc2c(Cl)cc(OCC=C(Cl)Cl)cc2Cl)n(C)n1 [Compound 24] | 100% | 
Cn1nc(-c2ccc(Cl)cc2)cc1OCCCOc1c(Cl)cc(OCC=C(Cl)Cl)cc1Cl [Compound 2] | 100% | control of the second instar larvae of diamond backmoth ([1]; dose 25 mg/L): 100%; control of wheat powdery mildew (wheat powdery mildew): more than 70%
ClC(Cl)=CCOc1cc(Cl)c(OCCCOc2cnn(-c3ccc(Cl)cc3)c2)c(Cl)c1 [Compound 546] | 100% | 
Cc1c(-c2ccc(Cl)cc2Cl)nn(C)c1OCCCOc1c(Cl)cc(OCC=C(Cl)Cl)cc1Cl [Compound 86] | 100% | 
Cc1ccc(-c2cc(OCCCOc3c(Cl)cc(OCC=C(Cl)Cl)cc3Cl)nn2C)cc1 [Compound 284] | 100% | 
